Data as given in PMC11050424, “Antibacterial and Hemolytic Activity of Antimicrobial Hydrogels Utilizing Immobilized Antimicrobial Peptides” (International Journal of Molecular Sciences, 2024).
≈ marks a conversion by molar mass, not a printed value. Residues, ends and D or L forms follow the SMILES beside them.

Legend:
[1] = test system: P. aeruginosa (CCUG 56489); type: cell-based, Pseudomonas aeruginosa
Description: (§1) The minimum inhibitory concentration protocol was adapted from [42], with the main change in volume for easier observation. In short, the protocol was as follows: a single colony of Staphylococcus aureus (CCUG 10778) or Pseudomonas aeruginosa (CCUG 56489) was inoculated in 4 mL of TSB and cultivated at 37 °C until OD ~ 0.7 which corresponds to a concentration of roughly 10^9 CFU mL^−1. This was then diluted 1000 times to a concentration of roughly 10^6 CFU mL^−1 using Mueller Hinton broth (MH broth). In the meantime, the different peptides were weighed in separate 15 mL falcon tubes and dissolved in MH broth for a concentration of 512 µM. Serial dilution by a factor of 2 was then performed, with MH broth, in a 24-well plate, leaving 500 µL of solution in each well. Then, 500 µL of the bacterial solution was added to each well resulting in a starting concentration of 5 × 10^5 CFU mL^−1. […] The plates were cultivated overnight (16–18 h) and the minimum inhibitory concentration was determined for the lowest concentration where no visible growth was observed. Three separate experiments were performed for all peptides and bacteria.

S. aureus (CCUG 10778) = type: cell-based, Staphylococcus aureus
Description: as §1

defibrinated horse blood = type: cell-based; details: red cells of horse, 1 h
Description: The use of hemolysis assays to study AMPs is a common implementation and quite standardized with small variations. Serial dilutions of the free AMPs were prepared in PBS to obtain 100 µL in Eppendorf tubes of the concentrations: 2, 4, 8, 16, 32, 64, 128, and 256 µM. A total of 100 µL of just PBS was added to an Eppendorf tube to serve as a negative control, and 100 µL of 0.2% Triton X-100 was added to an Eppendorf tube to serve as a positive control. The functionalized 8 mm Ø hydrogels as well as non-functionalized control hydrogels were placed in Eppendorf tubes together with 0.1, 0.2, 0.3 mL, or 0.4 mL PBS, two samples per type. For each volume, a set of negative control (PBS) and positive control (0.2% Triton X-100) was included using a matching volume. The blood used for the study was defibrinated horse blood from Thermo Fisher Scientific. The blood was placed in a 15 mL falcon tube and centrifuged at 4 °C for 10 min at 1000× g. The supernatant was discarded, and the erythrocytes were resuspended in 4 °C PBS and again centrifuged and the supernatant was removed. […]
The Eppendorf tubes were placed in an incubator at 37 °C for 1 h and the tubes were rotated 3 times every 15 min to limit sedimentation of the red blood cells. […] The absorbance was read at 540 nm using a Multiskan GO from Thermo Fisher Scientific. The rate of hemolysis was determined by Equation (2). […]

Compound | MIC, P. aeruginosa [1] [µM] | MIC, S. aureus (S. aureus (CCUG 10778)) [µM] | Hemolysis at corresponding MIC values (defibrinated horse blood) | Hemolysis at 8–16 µM (observed MIC values against P. aeruginosa) (defibrinated horse blood; 16)
N=C(N)NCCC[C@H](NC(=O)[C@@H](N)CCCNC(=N)N)C(=O)N1CCC[C@H]1C(=O)N[C@@H](CCCNC(=N)N)C(=O)N1CCC[C@H]1C(=O)N[C@@H](CCCNC(=N)N)C(=O)N1CCC[C@H]1C(=O)N[C@@H](CCCNC(=N)N)C(=O)N1CCC[C@H]1C(=O)N[C@@H](Cc1c[nH]c2ccccc12)C(=O)N[C@@H](Cc1c[nH]c2ccccc12)C(=O)N[C@@H](Cc1c[nH]c2ccccc12)C(=O)N[C@@H](Cc1c[nH]c2ccccc12)C(=O)N[C@@H](Cc1c[nH]c2ccccc12)C(N)=O [R9W5] (H-RRPRPRPRPWWWWW-NH2) | 32 to 64 | 16 (≈ 33.9 µg/mL) | – | –
CC[C@H](C)[C@H](N)C(=O)N[C@@H](CC(C)C)C(=O)N[C@@H](CCCNC(=N)N)C(=O)N[C@@H](Cc1c[nH]c2ccccc12)C(=O)N1CCC[C@H]1C(=O)N[C@@H](Cc1c[nH]c2ccccc12)C(=O)N[C@@H](Cc1c[nH]c2ccccc12)C(=O)N1CCC[C@H]1C(=O)N[C@@H](Cc1c[nH]c2ccccc12)C(=O)N[C@@H](CCCNC(=N)N)C(=O)N[C@@H](CCCNC(=N)N)C(=O)N[C@@H](CCCCN)C(N)=O [Omiganan, reference compound] (H-ILRWPWWPWRRK-NH2) | 32 (≈ 56.9 µg/mL) | 4 to 8 | – | –
N=C(N)NCCC[C@H](NC(=O)[C@@H](N)CCCNC(=N)N)C(=O)N1CCC[C@H]1C(=O)N[C@@H](CCCNC(=N)N)C(=O)N1CCC[C@H]1C(=O)N[C@@H](CCCNC(=N)N)C(=O)N1CCC[C@H]1C(=O)N[C@@H](CCCNC(=N)N)C(=O)N1CCC[C@H]1C(=O)N[C@@H](Cc1c[nH]c2ccccc12)C(=O)N[C@@H](Cc1c[nH]c2ccccc12)C(=O)N[C@@H](Cc1c[nH]c2ccccc12)C(=O)N[C@@H](Cc1c[nH]c2ccccc12)C(N)=O [R9W4] (H-RRPRPRPRPWWWW-NH2) | 16 (≈ 30.9 µg/mL) | 8 (≈ 15.5 µg/mL) | below 20% | –
NCCCC[C@H](NC(=O)[C@@H](N)CCCCN)C(=O)N1CCC[C@H]1C(=O)N[C@@H](CCCCN)C(=O)N1CCC[C@H]1C(=O)N[C@@H](CCCCN)C(=O)N1CCC[C@H]1C(=O)N[C@@H](CCCCN)C(=O)N1CCC[C@H]1C(=O)N[C@@H](Cc1c[nH]c2ccccc12)C(=O)N[C@@H](Cc1c[nH]c2ccccc12)C(=O)N[C@@H](Cc1c[nH]c2ccccc12)C(=O)N[C@@H](Cc1c[nH]c2ccccc12)C(N)=O [K9W4] (H-KKPKPKPKPWWWW-NH2) | 64 to 128 | – | – | –
N=C(N)NCCC[C@H](NC(=O)[C@@H]1CCCN1C(=O)[C@H](CCCNC(=N)N)NC(=O)[C@@H]1CCCN1C(=O)[C@H](CCCNC(=N)N)NC(=O)[C@@H]1CCCN1C(=O)[C@H](CCCCN)NC(=O)[C@@H](N)CCCCN)C(=O)N1CCC[C@H]1C(=O)N[C@@H](Cc1c[nH]c2ccccc12)C(=O)N[C@@H](Cc1c[nH]c2ccccc12)C(=O)N[C@@H](Cc1c[nH]c2ccccc12)C(=O)N[C@@H](Cc1c[nH]c2ccccc12)C(N)=O [KR9W4] (H-KKPRPRPRPWWWW-NH2) | 16 to 64 | 8 to 16 | – | –
CC[C@H](C)[C@H](NC(=O)CNC(=O)[C@H](CCCNC(=N)N)NC(=O)[C@H](Cc1ccccc1)NC(=O)[C@@H](NC(=O)[C@H](Cc1c[nH]cn1)NC(=O)[C@H](Cc1c[nH]cn1)NC(=O)[C@H](Cc1ccccc1)NC(=O)[C@@H](N)Cc1ccccc1)[C@@H](C)CC)C(=O)N[C@H](C(=O)N[C@@H](Cc1c[nH]cn1)C(=O)N[C@H](C(=O)NCC(=O)N[C@@H](CCCCN)C(=O)N[C@H](C(=O)N[C@H](C(=O)N[C@@H](Cc1c[nH]cn1)C(=O)N[C@@H](CCCNC(=N)N)C(=O)N[C@@H](CC(C)C)C(=O)N[C@H](C(=O)N[C@H](C(=O)NCC(N)=O)[C@@H](C)O)C(C)C)[C@@H](C)CC)[C@@H](C)O)C(C)C)C(C)C [Piscidin 1, reference compound] (H-FFHHIFRGIVHVGKTIHRLVTG-NH2) | 8 to 16 | 1 to 2 | – | 60–100%
